The record followed here is patent US20090318351A1, “METHOD OF TREATING ACUTE ST-ELEVATION MYOCARDIAL INFARCTION WITH A DELTA PKC ANTAGONIST” (priority 2008, published 2009).

The structures appear in SMILES notation.

In general, share remaining refers to what is left of the initial amount, in per cent. Read a low share remaining as a greater loss.

A short description of this series: Plasma stability of capped peptides (KAI-9706 modified at amino and carboxy termini). As to conditions: rat. Here is the method:
Plasma stability of capped peptides was compared. KAI-9706 was modified step-wise at its amino and carboxy termini. Plasma stability as measured by the percent of peptide composition remaining after 15 minutes.
In turn, `CC[C@H](C)[C@H](NC(=O)[C@@H]1CCCN1C(=O)[C@H](C)NC(=O)[C@H](CC(=O)O)NC(=O)[C@H](Cc1c[nH]cn1)NC(=O)[C@H](CSSC[C@H](NC(C)=O)C(=O)N[C@@H](Cc1ccc(O)cc1)C(=O)NCC(=O)N[C@@H](CCCNC(=N)N)C(=O)N[C@@H](CCCCN)C(=O)N[C@@H](CCCCN)C(=O)N[C@@H](CCCNC(=N)N)C(=O)N[C@@H](CCCNC(=N)N)C(=O)N[C@@H](CCC(N)=O)C(=O)N[C@@H](CCCNC(=N)N)C(=O)N[C@@H](CCCNC(=N)N)C(=O)N[C@@H](CCCNC(=N)N)C(N)=O)NC(C)=O)C(=O)NCC(=O)N[C@@H](Cc1ccc(O)cc1)C(=O)N[C@@H](CC(=O)O)C(N)=O` [KAI-9706 carrier Ac—NH2 cargo Ac—NH2] gave an amount remaining at 0.25 h of 90%.

As for `CC[C@H](C)[C@H](NC(=O)[C@@H]1CCCN1C(=O)[C@H](C)NC(=O)[C@H](CC(=O)O)NC(=O)[C@H](Cc1c[nH]cn1)NC(=O)[C@H](CSSC[C@H](NC(C)=O)C(=O)N[C@@H](Cc1ccc(O)cc1)C(=O)NCC(=O)N[C@@H](CCCNC(=N)N)C(=O)N[C@@H](CCCCN)C(=O)N[C@@H](CCCCN)C(=O)N[C@@H](CCCNC(=N)N)C(=O)N[C@@H](CCCNC(=N)N)C(=O)N[C@@H](CCC(N)=O)C(=O)N[C@@H](CCCNC(=N)N)C(=O)N[C@@H](CCCNC(=N)N)C(=O)N[C@@H](CCCNC(=N)N)C(N)=O)NC(C)=O)C(=O)NCC(=O)N[C@@H](Cc1ccc(O)cc1)C(=O)N[C@@H](CC(=O)O)C(=O)O` [KAI-9706 carrier Ac—NH2 cargo Ac—OH], the share remaining at 0.25 h was determined as 93%.

With `CC[C@H](C)[C@H](NC(=O)[C@@H]1CCCN1C(=O)[C@H](C)NC(=O)[C@H](CC(=O)O)NC(=O)[C@H](Cc1c[nH]cn1)NC(=O)[C@@H](N)CSSC[C@H](NC(C)=O)C(=O)N[C@@H](Cc1ccc(O)cc1)C(=O)NCC(=O)N[C@@H](CCCNC(=N)N)C(=O)N[C@@H](CCCCN)C(=O)N[C@@H](CCCCN)C(=O)N[C@@H](CCCNC(=N)N)C(=O)N[C@@H](CCCNC(=N)N)C(=O)N[C@@H](CCC(N)=O)C(=O)N[C@@H](CCCNC(=N)N)C(=O)N[C@@H](CCCNC(=N)N)C(=O)N[C@@H](CCCNC(=N)N)C(N)=O)C(=O)NCC(=O)N[C@@H](Cc1ccc(O)cc1)C(=O)N[C@@H](CC(=O)O)C(N)=O` [KAI-9706 carrier Ac—NH2 cargo H—NH2], the fraction remaining at 0.25 h turned out to be 90%.

`CC[C@H](C)[C@H](NC(=O)[C@@H]1CCCN1C(=O)[C@H](C)NC(=O)[C@H](CC(=O)O)NC(=O)[C@H](Cc1c[nH]cn1)NC(=O)[C@@H](N)CSSC[C@H](NC(C)=O)C(=O)N[C@@H](Cc1ccc(O)cc1)C(=O)NCC(=O)N[C@@H](CCCNC(=N)N)C(=O)N[C@@H](CCCCN)C(=O)N[C@@H](CCCCN)C(=O)N[C@@H](CCCNC(=N)N)C(=O)N[C@@H](CCCNC(=N)N)C(=O)N[C@@H](CCC(N)=O)C(=O)N[C@@H](CCCNC(=N)N)C(=O)N[C@@H](CCCNC(=N)N)C(=O)N[C@@H](CCCNC(=N)N)C(N)=O)C(=O)NCC(=O)N[C@@H](Cc1ccc(O)cc1)C(=O)N[C@@H](CC(=O)O)C(=O)O` [KAI-9706 carrier Ac—NH2 cargo H—OH] showed an amount remaining at 0.25 h of 92%.

Turning to `CC[C@H](C)[C@H](NC(=O)[C@@H]1CCCN1C(=O)[C@H](C)NC(=O)[C@H](CC(=O)O)NC(=O)[C@H](Cc1c[nH]cn1)NC(=O)[C@H](CSSC[C@H](NC(C)=O)C(=O)N[C@@H](Cc1ccc(O)cc1)C(=O)NCC(=O)N[C@@H](CCCNC(=N)N)C(=O)N[C@@H](CCCCN)C(=O)N[C@@H](CCCCN)C(=O)N[C@@H](CCCNC(=N)N)C(=O)N[C@@H](CCCNC(=N)N)C(=O)N[C@@H](CCC(N)=O)C(=O)N[C@@H](CCCNC(=N)N)C(=O)N[C@@H](CCCNC(=N)N)C(=O)N[C@@H](CCCNC(=N)N)C(=O)O)NC(C)=O)C(=O)NCC(=O)N[C@@H](Cc1ccc(O)cc1)C(=O)N[C@@H](CC(=O)O)C(N)=O` [KAI-9706 carrier Ac—OH cargo Ac—NH2], the share remaining at 0.25 h amounted to 48%.

Consider `CC[C@H](C)[C@H](NC(=O)[C@@H]1CCCN1C(=O)[C@H](C)NC(=O)[C@H](CC(=O)O)NC(=O)[C@H](Cc1c[nH]cn1)NC(=O)[C@@H](N)CSSC[C@H](NC(C)=O)C(=O)N[C@@H](Cc1ccc(O)cc1)C(=O)NCC(=O)N[C@@H](CCCNC(=N)N)C(=O)N[C@@H](CCCCN)C(=O)N[C@@H](CCCCN)C(=O)N[C@@H](CCCNC(=N)N)C(=O)N[C@@H](CCCNC(=N)N)C(=O)N[C@@H](CCC(N)=O)C(=O)N[C@@H](CCCNC(=N)N)C(=O)N[C@@H](CCCNC(=N)N)C(=O)N[C@@H](CCCNC(=N)N)C(=O)O)C(=O)NCC(=O)N[C@@H](Cc1ccc(O)cc1)C(=O)N[C@@H](CC(=O)O)C(=O)O` [KAI-9706 carrier Ac—OH cargo H—OH], for which the amount remaining at 0.25 h worked out at 57%.

In turn, `CC[C@H](C)[C@H](NC(=O)[C@@H]1CCCN1C(=O)[C@H](C)NC(=O)[C@H](CC(=O)O)NC(=O)[C@H](Cc1c[nH]cn1)NC(=O)[C@H](CSSC[C@H](N)C(=O)N[C@@H](Cc1ccc(O)cc1)C(=O)NCC(=O)N[C@@H](CCCNC(=N)N)C(=O)N[C@@H](CCCCN)C(=O)N[C@@H](CCCCN)C(=O)N[C@@H](CCCNC(=N)N)C(=O)N[C@@H](CCCNC(=N)N)C(=O)N[C@@H](CCC(N)=O)C(=O)N[C@@H](CCCNC(=N)N)C(=O)N[C@@H](CCCNC(=N)N)C(=O)N[C@@H](CCCNC(=N)N)C(N)=O)NC(C)=O)C(=O)NCC(=O)N[C@@H](Cc1ccc(O)cc1)C(=O)N[C@@H](CC(=O)O)C(N)=O` [KAI-9706 carrier H—NH2 cargo Ac—NH2] displayed a fraction remaining at 0.25 h of 51%.

Compound `CC[C@H](C)[C@H](NC(=O)[C@@H]1CCCN1C(=O)[C@H](C)NC(=O)[C@H](CC(=O)O)NC(=O)[C@H](Cc1c[nH]cn1)NC(=O)[C@@H](N)CSSC[C@H](N)C(=O)N[C@@H](Cc1ccc(O)cc1)C(=O)NCC(=O)N[C@@H](CCCNC(=N)N)C(=O)N[C@@H](CCCCN)C(=O)N[C@@H](CCCCN)C(=O)N[C@@H](CCCNC(=N)N)C(=O)N[C@@H](CCCNC(=N)N)C(=O)N[C@@H](CCC(N)=O)C(=O)N[C@@H](CCCNC(=N)N)C(=O)N[C@@H](CCCNC(=N)N)C(=O)N[C@@H](CCCNC(=N)N)C(N)=O)C(=O)NCC(=O)N[C@@H](Cc1ccc(O)cc1)C(=O)N[C@@H](CC(=O)O)C(=O)O` [KAI-9706 carrier H—NH2 cargo H—OH] returned a share remaining at 0.25 h of 60%.

`CC[C@H](C)[C@H](NC(=O)[C@@H]1CCCN1C(=O)[C@H](C)NC(=O)[C@H](CC(=O)O)NC(=O)[C@H](Cc1c[nH]cn1)NC(=O)[C@H](CSSC[C@H](N)C(=O)N[C@@H](Cc1ccc(O)cc1)C(=O)NCC(=O)N[C@@H](CCCNC(=N)N)C(=O)N[C@@H](CCCCN)C(=O)N[C@@H](CCCCN)C(=O)N[C@@H](CCCNC(=N)N)C(=O)N[C@@H](CCCNC(=N)N)C(=O)N[C@@H](CCC(N)=O)C(=O)N[C@@H](CCCNC(=N)N)C(=O)N[C@@H](CCCNC(=N)N)C(=O)N[C@@H](CCCNC(=N)N)C(=O)O)NC(C)=O)C(=O)NCC(=O)N[C@@H](Cc1ccc(O)cc1)C(=O)N[C@@H](CC(=O)O)C(N)=O` [KAI-9706 carrier H—OH cargo Ac—NH2]: the share remaining at 0.25 h was found to be 0%.

As for `CC[C@H](C)[C@H](NC(=O)[C@@H]1CCCN1C(=O)[C@H](C)NC(=O)[C@H](CC(=O)O)NC(=O)[C@H](Cc1c[nH]cn1)NC(=O)[C@H](CSSC[C@H](N)C(=O)N[C@@H](Cc1ccc(O)cc1)C(=O)NCC(=O)N[C@@H](CCCNC(=N)N)C(=O)N[C@@H](CCCCN)C(=O)N[C@@H](CCCCN)C(=O)N[C@@H](CCCNC(=N)N)C(=O)N[C@@H](CCCNC(=N)N)C(=O)N[C@@H](CCC(N)=O)C(=O)N[C@@H](CCCNC(=N)N)C(=O)N[C@@H](CCCNC(=N)N)C(=O)N[C@@H](CCCNC(=N)N)C(=O)O)NC(C)=O)C(=O)NCC(=O)N[C@@H](Cc1ccc(O)cc1)C(=O)N[C@@H](CC(=O)O)C(=O)O` [KAI-9706 carrier H—OH cargo Ac—OH], the fraction remaining at 0.25 h was 1%.

For the compound `CC[C@H](C)[C@H](NC(=O)[C@@H]1CCCN1C(=O)[C@H](C)NC(=O)[C@H](CC(=O)O)NC(=O)[C@H](Cc1c[nH]cn1)NC(=O)[C@@H](N)CSSC[C@H](N)C(=O)N[C@@H](Cc1ccc(O)cc1)C(=O)NCC(=O)N[C@@H](CCCNC(=N)N)C(=O)N[C@@H](CCCCN)C(=O)N[C@@H](CCCCN)C(=O)N[C@@H](CCCNC(=N)N)C(=O)N[C@@H](CCCNC(=N)N)C(=O)N[C@@H](CCC(N)=O)C(=O)N[C@@H](CCCNC(=N)N)C(=O)N[C@@H](CCCNC(=N)N)C(=O)N[C@@H](CCCNC(=N)N)C(=O)O)C(=O)NCC(=O)N[C@@H](Cc1ccc(O)cc1)C(=O)N[C@@H](CC(=O)O)C(N)=O` [KAI-9706 carrier H—OH cargo H—NH2], the share remaining at 0.25 h amounted to 0%.
